The target of assay [1] is Sodium channel alpha subunits; brain (Types I, II, III) (Rattus norvegicus, UniProt P04775+P04774+P08104). The experiment in a line: Inhibition of [3H]batrachotoxin binding to rat brain neuronal membranes. Format: cell membranes, Membrane.
For assay [2], the target named is Sodium channel alpha subunits; brain (Types I, II, III) (Homo sapiens, UniProt P35498+Q99250+Q9NY46). In words: Antagonism of batrachotoxin-mediated sodium ion uptake into cultured neuroblastoma cells. The assay is classed as functional.

One may read the IC50 as the concentration that inhibits the measured activity by half. Consider `COC[C@H](CCOC(=O)c1ccccc1)C[C@@H](O)[C@@]12CCCC3C[C@@](OC)(CCC31C)O2`, for which the values for the IC50 in assay [1] and in assay [2] were 10 µM and 5 µM, respectively. The like results for `CC12CC[C@]3(OCc4cccc(Br)c4)CC1CCC[C@@]2(CO)O3` were, in that order, 10 µM and 80 µM. Turning to `CO[C@]12CCC3(C)C(CCC[C@@]3([C@H](O)CCCN(C)C)O1)C2`, the IC50 in assay [1] is 130 µM; in assay [2], 200 µM.

In the case of `CO[C@]12CCC3(C)C(CCC[C@@]3([C@H](O)C[C@@H](CCOC(=O)c3ccccc3)CN(C)C)O1)C2`, the figures for the IC50 in assay [1] and in assay [2] were 3.6 µM and 0.5 µM, respectively. The like results for `CN(C)CCC[C@@H](O)[C@@]12CCCC3C[C@@](OCc4ccccc4)(CCC31C)O2` were, in that order, 4.5 µM and 4 µM. The like results for `CO[C@]12CCC3(C)C(CCC[C@@]3(CO)O1)C2` were, in that order, 2000 µM and 1000 µM. Turning to `CCCCNc1ccc(C(=O)OCCN(C)C)cc1` [TETRACAINE], the IC50 in assay [1] is 6 µM. `COc1ccc(C(=O)O[C@H]2CC[C@@]3(C)[C@@H]4CC[C@H]5[C@]6(O)C[C@H](O)[C@@]7(O)[C@@H](CN8C[C@@H](C)CC[C@H]8[C@@]7(C)O)[C@]6(O)C[C@@]53O[C@]24O)cc1OC` [VERATRIDINE] came in with an IC50 in assay [1] of 22 µM.

(Values after ChEMBL document CHEMBL1130561, “Batrachotoxin binding site antagonists” (Bioorg Med Chem Lett, 1997).)
